What was measured:
recombinant human MER = molecular target: T1, recombinant human MER (Homo sapiens, UniProt Q12866); test: Biochemical potency, HTRF KinEASE-TK kinase assay; conditions: 1 nM MER, 700 μM ATP
T1 construct: purchased Invitrogen
T1 sequence (Q12866 21-999): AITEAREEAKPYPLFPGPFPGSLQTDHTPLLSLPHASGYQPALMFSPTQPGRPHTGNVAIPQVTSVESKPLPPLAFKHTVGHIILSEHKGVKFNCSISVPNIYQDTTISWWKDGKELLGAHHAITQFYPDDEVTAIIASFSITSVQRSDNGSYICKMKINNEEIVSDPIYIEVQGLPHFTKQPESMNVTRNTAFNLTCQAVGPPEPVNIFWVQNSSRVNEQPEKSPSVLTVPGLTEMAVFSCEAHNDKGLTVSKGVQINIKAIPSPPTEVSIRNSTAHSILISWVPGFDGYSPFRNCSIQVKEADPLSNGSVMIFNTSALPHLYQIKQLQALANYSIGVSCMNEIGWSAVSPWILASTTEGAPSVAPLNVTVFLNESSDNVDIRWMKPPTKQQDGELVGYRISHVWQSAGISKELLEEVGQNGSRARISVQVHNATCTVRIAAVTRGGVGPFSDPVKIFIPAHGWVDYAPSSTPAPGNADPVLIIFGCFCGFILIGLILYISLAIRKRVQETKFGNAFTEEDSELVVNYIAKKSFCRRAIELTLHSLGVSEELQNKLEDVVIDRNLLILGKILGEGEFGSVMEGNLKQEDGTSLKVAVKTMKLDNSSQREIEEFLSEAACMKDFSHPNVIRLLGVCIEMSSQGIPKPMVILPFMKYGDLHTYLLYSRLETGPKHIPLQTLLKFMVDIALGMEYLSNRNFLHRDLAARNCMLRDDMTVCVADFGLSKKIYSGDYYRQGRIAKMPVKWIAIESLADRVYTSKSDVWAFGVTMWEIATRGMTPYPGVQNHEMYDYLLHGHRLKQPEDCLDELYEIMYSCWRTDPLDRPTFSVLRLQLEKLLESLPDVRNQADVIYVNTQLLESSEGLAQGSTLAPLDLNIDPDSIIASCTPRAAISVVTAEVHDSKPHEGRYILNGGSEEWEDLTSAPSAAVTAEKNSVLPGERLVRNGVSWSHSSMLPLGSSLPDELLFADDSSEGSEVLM
Summary of the method: (§1)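 HTRF 665/620 readout after a 2 h RT kinase reaction (final 700 μM ATP, 800 nM biotinylated TK substrate, 1% DMSO, HEPES pH 7.4 buffer) gave percent activity. Final enzyme was 5 nM for AXL, 1 nM for TYRO3 or MER, each preincubated 1 h with compound.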

recombinant human TYRO3 = molecular target: T2, recombinant human TYRO3 (Homo sapiens, UniProt Q06418); test: Biochemical potency, HTRF KinEASE-TK kinase assay; conditions: 1 nM TYRO3, 700 μM ATP
T2 construct: purchased Invitrogen
T2 sequence (Q06418 41-890): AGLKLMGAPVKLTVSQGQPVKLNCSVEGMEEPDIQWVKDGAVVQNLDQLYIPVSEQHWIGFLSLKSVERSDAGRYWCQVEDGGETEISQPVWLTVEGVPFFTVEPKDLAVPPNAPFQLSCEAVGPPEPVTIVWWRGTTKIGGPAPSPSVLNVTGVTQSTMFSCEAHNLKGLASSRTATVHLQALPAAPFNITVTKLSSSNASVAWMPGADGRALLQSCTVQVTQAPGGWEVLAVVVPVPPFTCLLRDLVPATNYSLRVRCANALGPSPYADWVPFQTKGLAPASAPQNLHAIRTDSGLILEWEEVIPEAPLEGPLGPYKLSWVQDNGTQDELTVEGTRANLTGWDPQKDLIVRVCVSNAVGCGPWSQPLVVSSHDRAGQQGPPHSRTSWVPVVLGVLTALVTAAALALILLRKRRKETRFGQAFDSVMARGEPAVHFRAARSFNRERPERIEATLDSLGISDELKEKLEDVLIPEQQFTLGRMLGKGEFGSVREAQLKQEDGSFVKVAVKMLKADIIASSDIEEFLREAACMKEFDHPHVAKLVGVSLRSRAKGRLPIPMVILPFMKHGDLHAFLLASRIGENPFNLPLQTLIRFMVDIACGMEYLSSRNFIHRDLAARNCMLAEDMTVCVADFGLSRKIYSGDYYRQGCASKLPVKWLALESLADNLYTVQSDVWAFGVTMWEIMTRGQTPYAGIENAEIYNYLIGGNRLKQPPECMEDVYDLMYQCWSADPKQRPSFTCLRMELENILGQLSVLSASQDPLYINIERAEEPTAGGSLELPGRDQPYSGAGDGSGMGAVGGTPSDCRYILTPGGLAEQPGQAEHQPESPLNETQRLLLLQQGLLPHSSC
Summary of the method: as §1

Structure (SMILES)	IC50 (recombinant human MER) [nM]	IC50 (recombinant human TYRO3) [nM]
COc1ccnc(-c2ccc(-c3n[nH]c4ncc(-c5ccc6c(c5)CC[C@@H](N5C7COCC5C7)CC6)cc34)cc2)c1C [Example 87, 6-[(7S)-3-[3-[4-(4-Methoxy-3-methylpyridin-2-yl)phenyl]-1H-pyrazolo[3,4-b]pyridin-5-yl]-6,7,8,9-tetrahydro-5H-benzo[7]annulen-7-yl]-3-oxa-6-azabicyclo[3.1.1]heptane]	100 to 1000	100 to 1000
FC(F)(F)c1cccnc1-c1ccc(-c2n[nH]c3ncc(-c4ccc5c(c4)CC[C@@H](N4C6COCC4C6)CC5)cc23)cc1 [Example 88, 6-[(7S)-3-[3-[4-[3-(Trifluoromethyl)pyridin-2-yl]phenyl]-1H-pyrazolo[3,4-b]pyridin-5-yl]-6,7,8,9-tetrahydro-5H-benzo[7]annulen-7-yl]-3-oxa-6-azabicyclo[3.1.1]heptane]	100 to 1000	100 to 1000
Clc1cccnc1-c1ccc(-c2c[nH]c3ncc(-c4ccc5c(c4)CC[C@@H](N4C6COCC4C6)CC5)cc23)cc1 [Example 43, 6-[(7S)-2-{3-[4-(3-Chloropyridin-2-yl)phenyl]-1H-pyrrolo[2,3-b]pyridin-5-yl}-6,7,8,9-tetrahydro-5H-benzo[7]annulen-7-yl]-3-oxa-6-azabicyclo[3.1.1]heptane]	100 to 1000	100 to 1000
Cc1ccnnc1-c1ccc(-c2n[nH]c3ncc(-c4ccc5c(c4)CC[C@@H](N4C6COCC4C6)CC5)cc23)nc1 [Example 56, 6-[(7S)-2-{3-[5-(4-Methylpyridazin-3-yl)pyridin-2-yl]-1H-pyrazolo[3,4-b]pyridin-5-yl}-6,7,8,9-tetrahydro-5H-benzo[7]annulen-7-yl]-3-oxa-6-azabicyclo[3.1.1]heptane]	100 to 1000	100 to 1000
Cc1cnc(-c2ccc(-c3c[nH]c4ncc(-c5ccc6c(c5)CC[C@@](C)(N5CCC[C@H]5C)CC6)cc34)cc2)c(C)n1 [Example 57, 3,5-Dimethyl-2-(4-{5-[(7S)-7-methyl-7-[(2R)-2-methylpyrrolidin-1-yl]-6,7,8,9-tetrahydro-5H-benzo[7]annulen-2-yl]-1H-pyrrolo[2,3-b]pyridin-3-yl}phenyl)pyrazine]	100 to 1000	100 to 1000
C[C@@H]1CCCN1[C@@]1(C)CCc2ccc(-c3cnc4[nH]nc(-c5ccc(-c6ncco6)cc5)c4c3)cc2CC1 [Example 90, 2-(4-{5-[(7S)-7-Methyl-7-[(2R)-2-methylpyrrolidin-1-yl]-6,7,8,9-tetrahydro-5H-benzo[7]annulen-2-yl]-2H-pyrazolo[3,4-b]pyridin-3-yl}phenyl)-1,3-oxazole]	100 to 1000	100 to 1000
Cc1nccnc1-c1ccc(-c2c[nH]c3ncc(-c4ccc5c(c4)CC[C@@H](N4C6COCC4C6)CC5)cc23)cc1 [Example 48, 6-[(7S)-2-{3-[4-(3-Methylpyrazin-2-yl)phenyl]-1H-pyrrolo[2,3-b]pyridin-5-yl}-6,7,8,9-tetrahydro-5H-benzo[7]annulen-7-yl]-3-oxa-6-azabicyclo[3.1.1]heptane]	100 to 1000	100 to 1000
Cc1cncnc1-c1ccc(-c2c[nH]c3ncc(-c4ccc5c(c4)CC[C@@H](N4C6COCC4C6)CC5)cc23)cc1 [Example 47, 6-[(7S)-2-{3-[4-(5-Methylpyrimidin-4-yl)phenyl]-1H-pyrrolo[2,3-b]pyridin-5-yl}-6,7,8,9-tetrahydro-5H-benzo[7]annulen-7-yl]-3-oxa-6-azabicyclo[3.1.1]heptane]	< 100	< 100
Cc1cccnc1-c1ccc(-c2c[nH]c3ncc(-c4ccc5c(c4)CC[C@@H](N4C6COCC4C6)CC5)cc23)cc1 [Example 1, 6-[(7S)-2-{3-[4-(3-Methylpyridin-2-yl)phenyl]-1H-pyrrolo[2,3-b]pyridin-5-yl}-6,7,8,9-tetrahydro-5H-benzo[7]annulen-7-yl]-3-oxa-6-azabicyclo[3.1.1]heptane]	< 100	< 100
c1cc(-n2cc(-c3c[nH]c4ncc(-c5ccc6c(c5)CC[C@@H](N5C7COCC5C7)CC6)cc34)cn2)ccn1 [Example 45, 6-[(7S)-2-{3-[1-(Pyridin-4-yl)-1H-pyrazol-4-yl]-1H-pyrrolo[2,3-b]pyridin-5-yl}-6,7,8,9-tetrahydro-5H-benzo[7]annulen-7-yl]-3-oxa-6-azabicyclo[3.1.1]heptane]	> 1000	> 1000
FC(F)c1cccnc1-c1ccc(-c2n[nH]c3ncc(-c4ccc5c(c4)CC[C@@H](N4C6COCC4C6)CC5)cc23)cc1 [Example 89, 6-[(7S)-3-[3-[4-[3-(Difluoromethyl)pyridin-2-yl]phenyl]-1H-pyrazolo[3,4-b]pyridin-5-yl]-6,7,8,9-tetrahydro-5H-benzo[7]annulen-7-yl]-3-oxa-6-azabicyclo[3.1.1]heptane]	100 to 1000	100 to 1000
Cc1cccnc1-c1ccc(-c2n[nH]c3ncc(-c4ccc5c(c4)CC[C@@H](N4C6COCC4C6)CC5)cc23)cc1 [Example 2, 6-[(7S)-2-{3-[4-(3-Methylpyridin-2-yl)phenyl]-2H-pyrazolo[3,4-b]pyridin-5-yl}-6,7,8,9-tetrahydro-5H-benzo[7]annulen-7-yl]-3-oxa-6-azabicyclo[3.1.1]heptane]	100 to 1000	< 100
Cc1ccnnc1-c1ccc(-c2c[nH]c3ncc(-c4ccc5c(c4)CC[C@@H](N4C6COCC4C6)CC5)cc23)cc1 [Example 49, 6-[(7S)-2-{3-[4-(4-Methylpyridazin-3-yl)phenyl]-1H-pyrrolo[2,3-b]pyridin-5-yl}-6,7,8,9-tetrahydro-5H-benzo[7]annulen-7-yl]-3-oxa-6-azabicyclo[3.1.1]heptane]	< 100	< 100
COCCOc1cccnc1-c1ccc(-c2c[nH]c3ncc(-c4ccc5c(c4)CC[C@@H](N4C6COCC4C6)CC5)cc23)cc1 [Example 3, 6-[(7S)-2-(3-{4-[3-(2-Methoxyethoxy)pyridin-2-yl]phenyl}-1H-pyrrolo[2,3-b]pyridin-5-yl)-6,7,8,9-tetrahydro-5H-benzo[7]annulen-7-yl]-3-oxa-6-azabicyclo[3.1.1]heptane]	< 100	< 100
Cc1nccnc1-c1ccc(-c2c[nH]c3ncc(-c4ccc5c(c4)CC[C@@H](N4C6COCC4C6)CC5)cc23)nc1 [Example 54, 6-[(7S)-2-{3-[5-(3-Methylpyrazin-2-yl)pyridin-2-yl]-1H-pyrrolo[2,3-b]pyridin-5-yl}-6,7,8,9-tetrahydro-5H-benzo[7]annulen-7-yl]-3-oxa-6-azabicyclo[3.1.1]heptane]	> 1000	100 to 1000
Fc1cc(-c2c[nH]c3ncc(-c4ccc5c(c4)CC[C@@H](N4C6COCC4C6)CC5)cc23)ccc1-c1ccccn1 [Example 40, 6-[(7S)-2-{3-[3-Fluoro-4-(pyridin-2-yl)phenyl]-1H-pyrrolo[2,3-b]pyridin-5-yl}-6,7,8,9-tetrahydro-5H-benzo[7]annulen-7-yl]-3-oxa-6-azabicyclo[3.1.1]heptane]	100 to 1000	100 to 1000

Reference: patent publication US12195482B1 (Arcus Biosciences, Inc., priority 2022, dated 2025)
